From ChEMBL document CHEMBL1909528, “Synthesis and 2D QSAR of O-sulphonated β-aminols derivatives as novel antifungal and antibacterial agents” (Bioorg Med Chem Lett, 2011)

Legend:
Sporothrix schenckii = assay: Antifungal activity against Sporothrix schenckii by broth microdilution method; format: functional, organism-based
Aspergillus fumigatus = assay: Antifungal activity against Aspergillus fumigatus by broth microdilution method; format: functional
Cryptococcus neoformans = assay: Antifungal activity against Cryptococcus neoformans by broth microdilution method; format: functional
Candida parapsilosis = assay: Antifungal activity against Candida parapsilosis ATCC 22019 by broth microdilution method; format: functional; details: Lodderomyces parapsilosis
[1] = tested on: Trichophyton mentagrophytes; assay: Antifungal activity against Trichophyton mentagrophytes by broth microdilution method; format: functional, organism-based
Escherichia coli = assay: Antibacterial activity against Escherichia coli ATCC 9637 by broth microdilution method; format: functional, organism-based
Candida albicans = assay: Antifungal activity against Candida albicans by broth microdilution method; format: functional, organism-based
Staphylococcus aureus = assay: Antibacterial activity against Staphylococcus aureus ATCC 25923 by broth microdilution method; format: functional, organism-based

| SMILES | MIC (Sporothrix schenckii) [µM] | IC50 (Sporothrix schenckii; read-out: IC50) [µM] | IC50 (Sporothrix schenckii; read-out: pIC50 (converted)) [µM] | MIC (Aspergillus fumigatus) [µM] | MIC (Cryptococcus neoformans) [µM] | MIC (Candida parapsilosis) [µM] | MIC [1] [µM] | IC50 ([1]; read-out: IC50) [µM] | IC50 ([1]; read-out: pIC50 (converted)) [µM] | MIC (Escherichia coli) [µM] | IC50 (Escherichia coli; read-out: IC50) [µM] | IC50 (Escherichia coli; read-out: pIC50 (converted)) [µM] | MIC (Candida albicans) [µM] | IC50 (Candida albicans; read-out: IC50) [µM] | IC50 (Candida albicans; read-out: pIC50 (converted)) [µM] | MIC (Staphylococcus aureus) [µM] | IC50 (Staphylococcus aureus; read-out: IC50) [µM] | IC50 (Staphylococcus aureus; read-out: pIC50 (converted)) [µM] |
| --- | --- | --- | --- | --- | --- | --- | --- | --- | --- | --- | --- | --- | --- | --- | --- | --- | --- | --- |
| CC(C)(C)OC(=O)N(Cc1ccc(Cl)c(Cl)c1)CC(OS(=O)(=O)c1cccc([N+](=O)[O-])c1)c1ccccc1 (centres undefined) | < 50 | 24.4 | 24.4 | > 50 | > 50 | > 50 |  |  |  |  |  |  |  |  |  |  |  |  |
| CC(C)(C)OC(=O)N(Cc1ccccc1)CC(OS(=O)(=O)c1cccc([N+](=O)[O-])c1)c1ccccc1 (centres undefined) | < 50 | 5.95 | 5.95 | > 50 | > 50 | > 50 |  |  |  |  |  |  |  |  |  |  |  |  |
| Cc1ccc(C(CN(Cc2ccccc2)C(=O)OC(C)(C)C)OS(=O)(=O)c2c(Cl)cccc2Cl)cc1 (centres undefined) |  |  |  | > 50 | > 50 | > 50 | < 50 | 4.39 | 4.4 |  |  |  |  |  |  |  |  |  |
| COc1ccc(CN(CC(OS(=O)(=O)c2ccc(F)cc2)c2ccccc2)C(=O)OC(C)(C)C)cc1 (centres undefined) | < 50 | 23.2 | 23.1 | > 50 | > 50 | > 50 | < 50 | 2.76 | 2.76 |  |  |  |  |  |  |  |  |  |
| Cc1ccc(S(=O)(=O)OC(CN(Cc2ccccc2)C(=O)OC(C)(C)C)c2ccccc2)cc1 (centres undefined) | < 50 | 32.7 | 32.7 | > 50 | > 50 | > 50 | < 50 | 11.7 | 11.7 | < 50 | 7.5 | 7.5 | < 50 | 4.07 | 4.07 |  |  |  |
| CC(C)(C)OC(=O)N(Cc1ccccc1)CC(OS(=O)(=O)c1ccc([N+](=O)[O-])cc1[N+](=O)[O-])c1ccccc1 (centres undefined) |  |  |  | > 50 | > 50 | > 50 |  |  |  | < 50 | 23.3 | 23.3 | < 50 | 0.54 |  |  |  |  |
| O=S(=O)(OC(CNCc1ccccc1)c1ccccc1)c1cccc(Cl)c1Cl (centres undefined) | < 50 | 15.6 | 15.6 | > 50 | > 50 | > 50 | < 50 | 5.89 | 5.89 |  |  |  |  |  |  |  |  |  |
| COc1ccc(C(CN(Cc2ccccc2)C(=O)OC(C)(C)C)OS(=O)(=O)c2ccc(F)cc2)cc1 (centres undefined) |  |  |  | > 50 | > 50 | > 50 | < 50 | 22.8 | 22.9 |  |  |  |  |  |  |  |  |  |
| COc1ccc(C(CN(Cc2ccccc2)C(=O)OC(C)(C)C)OS(=O)(=O)c2cccc(Cl)c2Cl)cc1 (centres undefined) | < 50 | 13.4 | 13.4 | > 50 | > 50 | > 50 | < 50 | 14.9 | 14.9 |  |  |  |  |  |  |  |  |  |
| CC(C)(C)OC(=O)N(Cc1ccc(F)cc1)CC(OS(=O)(=O)c1cccc([N+](=O)[O-])c1)c1ccccc1 (centres undefined) |  |  |  | > 50 | > 50 | > 50 |  |  |  |  |  |  |  |  |  | < 50 | 39.9 | 39.8 |
| O=[N+]([O-])c1cccc(S(=O)(=O)OC(CNCc2ccccc2)c2ccccc2)c1 (centres undefined) |  |  |  | > 50 | > 50 | > 50 |  |  |  |  |  |  | < 50 | 30.8 | 30.8 | < 50 | 0.842 | 1.19 |
| CC(C)(C)OC(=O)N(Cc1ccccc1)CC(OS(=O)(=O)c1ccc2ccccc2c1)c1ccccc1 (centres undefined) |  |  |  | > 50 | > 50 | > 50 | < 50 | 2.12 | 2.12 | < 50 | 3.54 | 3.54 |  |  |  |  |  |  |
| Cc1ccc(C(CN(Cc2ccccc2)C(=O)OC(C)(C)C)OS(=O)(=O)c2cccc(Cl)c2Cl)cc1 (centres undefined) | < 50 | 10.7 | 10.7 | > 50 | > 50 | > 50 |  |  |  |  |  |  |  |  |  |  |  |  |
| CC(C)(C)OC(=O)N(Cc1ccccc1)CC(OS(=O)(=O)c1cccc(Cl)c1Cl)c1ccccc1 (centres undefined) | < 50 | 26.7 | 26.7 | > 50 | > 50 | > 50 | < 50 | 0.33 |  |  |  |  |  |  |  |  |  |  |
| COc1ccc(CN(CC(OS(=O)(=O)c2cccc([N+](=O)[O-])c2)c2ccccc2)C(=O)OC(C)(C)C)cc1 (centres undefined) | < 50 | 6.24 | 6.24 | > 50 | > 50 | > 50 | < 50 | 2.24 | 2.24 |  |  |  |  |  |  |  |  |  |
| CC(C)(C)OC(=O)N(Cc1ccc(Cl)c(Cl)c1)CC(OS(=O)(=O)c1ccc(F)cc1)c1ccccc1 (centres undefined) | < 50 | 43.3 | 43.3 | > 50 | > 50 | > 50 |  |  |  |  |  |  |  |  |  | < 50 | 15.3 | 15.3 |

| SMILES | MIC (Sporothrix schenckii) [µM] | IC50 (Sporothrix schenckii; read-out: IC50) [µM] | IC50 (Sporothrix schenckii; read-out: pIC50 (converted)) [µM] | MIC (Aspergillus fumigatus) [µM] | MIC (Cryptococcus neoformans) [µM] | MIC (Candida parapsilosis) [µM] | MIC [1] [µM] | IC50 ([1]; read-out: IC50) [µM] | IC50 ([1]; read-out: pIC50 (converted)) [µM] | MIC (Escherichia coli) [µM] | IC50 (Escherichia coli; read-out: IC50) [µM] | IC50 (Escherichia coli; read-out: pIC50 (converted)) [µM] | MIC (Candida albicans) [µM] | IC50 (Candida albicans; read-out: IC50) [µM] | IC50 (Candida albicans; read-out: pIC50 (converted)) [µM] | MIC (Staphylococcus aureus) [µM] | IC50 (Staphylococcus aureus; read-out: IC50) [µM] | IC50 (Staphylococcus aureus; read-out: pIC50 (converted)) [µM] |
| --- | --- | --- | --- | --- | --- | --- | --- | --- | --- | --- | --- | --- | --- | --- | --- | --- | --- | --- |
| O=S(=O)(OC(CNCc1ccccc1)c1ccccc1)c1c(Cl)cccc1Cl (centres undefined) | < 50 | 12 | 12 | > 50 | > 50 | > 50 | < 50 | 44.7 | 44.8 |  |  |  | < 50 | 18 | 18 | < 50 | 11.6 | 11.6 |
| CC(C)(C)OC(=O)N(Cc1ccc(Cl)c(Cl)c1)CC(OS(=O)(=O)c1cccc(Cl)c1Cl)c1ccccc1 (centres undefined) | < 50 | 23.3 | 23.3 | > 50 | > 50 | > 50 |  |  |  |  |  |  |  |  |  |  |  |  |
| CC(C)c1cc(C(C)C)c(S(=O)(=O)OC(CN(Cc2ccccc2)C(=O)OC(C)(C)C)c2ccccc2)c(C(C)C)c1 (centres undefined) | < 50 | 46.4 | 46.4 | > 50 | > 50 | > 50 | < 50 | 6.11 | 6.11 |  |  |  | < 50 | 12.5 | 12.5 |  |  |  |
| CC(C)(C)OC(=O)N(Cc1ccccc1)CC(OS(=O)(=O)c1ccc(F)cc1)c1ccccc1 (centres undefined) | < 50 | 8.66 | 8.66 | > 50 | > 50 | > 50 | < 50 | 0.46 |  | < 50 | 0.83 | 1.2 | < 50 | 1.52 | 1.52 |  |  |  |
| CC(C)(C)OC(=O)N(Cc1ccccc1)CC(OS(=O)(=O)c1c(Cl)cccc1Cl)c1ccccc1 (centres undefined) | < 50 | 11.4 | 11.4 | > 50 | > 50 | > 50 |  |  |  | < 50 | 3.13 | 3.13 |  |  |  |  |  |  |
| CC(C)(C)OC(=O)N(Cc1ccc(F)cc1)CC(OS(=O)(=O)c1cccc(Cl)c1Cl)c1ccccc1 (centres undefined) | < 50 | 7.46 | 7.46 | > 50 | > 50 | > 50 | < 50 | 0.53 |  |  |  |  |  |  |  | < 50 | 14.7 | 14.7 |
| CC(C)(C)OC(=O)N(Cc1ccccc1)CC(OS(=O)(=O)c1ccccc1C(F)(F)F)c1ccccc1 (centres undefined) | < 50 | 28.4 | 28.4 | > 50 | > 50 | > 50 | < 50 | 24.4 | 24.4 |  |  |  | < 50 | 6.44 | 6.44 |  |  |  |
| CC(C)(C)OC(=O)N(Cc1ccc(F)cc1)CC(OS(=O)(=O)c1ccc(F)cc1)c1ccccc1 (centres undefined) |  |  |  | > 50 | > 50 | > 50 |  |  |  |  |  |  |  |  |  | < 50 | 22.6 | 22.6 |
| Cc1cc(C)cc(S(=O)(=O)OC(CN(Cc2ccccc2)C(=O)OC(C)(C)C)c2ccccc2)c1 (centres undefined) | < 50 | 31.2 | 31.2 | > 50 | > 50 | > 50 | < 50 | 12.6 | 12.6 |  |  |  | < 50 | 41.6 | 41.6 |  |  |  |
| CC(C)(C)OC(=O)N(Cc1ccccc1)CC(OS(=O)(=O)c1cccc2ccccc12)c1ccccc1 (centres undefined) |  |  |  | > 50 | > 50 | > 50 | < 50 | 5.48 | 5.48 | < 50 | 1.26 | 1.26 |  |  |  |  |  |  |
| O=S(=O)(OC(CNCc1ccccc1)c1ccccc1)c1ccc(F)cc1 (centres undefined) |  |  |  | > 50 | > 50 | > 50 | < 50 | 10.2 | 10.2 |  |  |  | < 50 | 41.9 | 41.9 | < 50 | 22.6 | 22.6 |
| COc1ccc(C(CN(Cc2ccccc2)C(=O)OC(C)(C)C)OS(=O)(=O)c2c(Cl)cccc2Cl)cc1 (centres undefined) |  |  |  | > 50 | > 50 | > 50 | < 50 | 13.5 | 13.6 |  |  |  |  |  |  |  |  |  |
| CC(C)(C)OC(=O)N(Cc1ccccc1)CC(OS(=O)(=O)c1ccc([N+](=O)[O-])cc1)c1ccccc1 (centres undefined) |  |  |  | > 50 | > 50 | > 50 | < 50 | 5.73 | 5.73 | < 50 | 9.02 | 9.02 |  |  |  |  |  |  |
| CC(C)(C)OC(=O)N(Cc1ccc(F)cc1)CC(OS(=O)(=O)c1c(Cl)cccc1Cl)c1ccccc1 (centres undefined) |  |  |  | > 50 | > 50 | > 50 |  |  |  |  |  |  |  |  |  | < 50 | 12.5 | 12.5 |
| CC(C)(C)OC(=O)N(Cc1ccccc1)CC(OS(=O)(=O)c1ccc(C#N)cc1)c1ccccc1 (centres undefined) | < 50 | 32.7 | 32.7 | > 50 | > 50 | > 50 | < 50 | 9.48 | 9.48 | < 50 | 18.5 | 18.5 | < 50 | 8.59 | 8.59 |  |  |  |
